Assay results taken from PubChem BioAssay (NCI).
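At the GI50, growth is halved. The concentration for full growth arrest is given as TGI.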

Key:
Experiment in all cases: DTP human tumour cell line panel, 384-well format
[1] = system: 786-0 renal
[2] = system: A498 renal
[3] = system: A549 NSCLC
[4] = system: ACHN renal
[5] = system: BT-549 breast
[6] = system: CAKI-1 renal
[7] = system: CCRF-CEM leukemia
[8] = system: DU-145 prostate
[9] = system: EKVX NSCLC
[10] = system: HCT-116 colon
[11] = system: HCT-15 colon
[12] = system: HL-60(TB) leukemia
[13] = system: HOP-62 NSCLC
[14] = system: HOP-92 NSCLC
[15] = system: HS 578T breast
[16] = system: IGROV1 ovarian
[17] = system: KM12 colon
[18] = system: LOX IMVI melanoma
[19] = system: M14 melanoma
[20] = system: MALME-3M melanoma
[21] = system: MCF7 breast
[22] = system: MDA-MB-435 melanoma
[23] = system: MDA-MB-468 breast
[24] = system: MOLT-4 leukemia
[25] = system: NCI-H226 lung
[26] = system: NCI-H23 lung
[27] = system: NCI-H322M lung
[28] = system: NCI-H460 NSCLC
[29] = system: NCI-H522 lung
[30] = system: NCI/ADR-RES ovarian
[31] = system: OVCAR-3 ovarian
[32] = system: OVCAR-4 ovarian
[33] = system: OVCAR-5 ovarian
[34] = system: OVCAR-8 ovarian
[35] = system: PC-3 prostate
[36] = system: RPMI-8226 leukemia
[37] = system: RXF 393 renal
[38] = system: SF-268 CNS
[39] = system: SF-295 CNS
[40] = system: SF-539 CNS
[41] = system: SK-MEL-28 melanoma
[42] = system: SK-MEL-5 melanoma
[43] = system: SK-OV-3 ovarian
[44] = system: SN12C renal
[45] = system: SNB-19 CNS
[46] = system: SNB-75 CNS
[47] = system: SR leukemia
[48] = system: SW-620 colon
[49] = system: T-47D breast
[50] = system: TK-10 renal
[51] = system: U251 glioblastoma
[52] = system: UACC-257 melanoma
[53] = system: UACC-62 melanoma
[54] = system: UO-31 renal

Work on `COc1ccc(CN2C3CC2CN(c2ccc(-c4cc(OCC(C)(C)O)cn5ncc(C#N)c45)cn2)C3)cn1` yielded a GI50 [1] of 57.3 µM, a TGI [1] of over 100 µM and a GI50 [2] of over 38.3 µM. For the same molecule, the TGI [2] was over 100 µM, the GI50 [3] was 7.53 µM and the TGI [3] was over 31.6 µM. The GI50 [4] was 25.4 µM, the TGI [4] was over 100 µM and the GI50 [5] was 1.87 µM. For the same molecule, the TGI [5] was 7.68 µM, the GI50 [6] was 5.02 µM and the TGI [6] was over 100 µM. The GI50 [7] was 1.99 µM, the TGI [7] was 3.76 µM and the GI50 [8] was 28.3 µM. The TGI [8] was over 100 µM, the GI50 [9] was over 31.6 µM and the TGI [9] was over 31.6 µM. It also gave a GI50 [10] of 24.2 µM, a TGI [10] of over 100 µM and a GI50 [11] of 9.55 µM. For the same molecule, the TGI [11] was over 31.6 µM, the GI50 [12] was 4.36 µM and the TGI [12] was 11.5 µM. For the same molecule, the GI50 [13] was 8.51 µM, the TGI [13] was over 31.6 µM and the GI50 [14] was 2.92 µM. It also gave a TGI [14] of 38.1 µM, a GI50 [15] of 6.92 µM and a TGI [15] of over 50.1 µM. For the same molecule, the GI50 [16] was 7.33 µM, the TGI [16] was over 60 µM and the GI50 [17] was over 100 µM. It also gave a TGI [17] of over 100 µM, a GI50 [18] of 50.8 µM and a TGI [18] of over 100 µM. It also gave a GI50 [19] of over 82 µM, a TGI [19] of over 100 µM and a GI50 [20] of over 28.9 µM. For the same molecule, the TGI [20] was over 100 µM, the GI50 [21] was over 31.6 µM and the TGI [21] was over 31.6 µM. For the same molecule, the GI50 [22] was over 100 µM, the TGI [22] was over 100 µM and the GI50 [23] was 5.75 µM. It also gave a TGI [23] of 9.04 µM, a GI50 [24] of 1.58 µM and a TGI [24] of 3.13 µM. It also gave a GI50 [25] of 2.94 µM, a TGI [25] of 15.4 µM and a GI50 [26] of 8.4 µM. The TGI [26] was 27.8 µM, the GI50 [27] was over 74 µM and the TGI [27] was over 100 µM. For the same molecule, the GI50 [28] was 5.11 µM, the TGI [28] was over 100 µM and the GI50 [29] was 7.9 µM. It also gave a TGI [29] of over 31.6 µM, a GI50 [30] of 21.4 µM and a TGI [30] of over 100 µM. The GI50 [31] was over 28.5 µM, the TGI [31] was over 100 µM and the GI50 [32] was 5.26 µM. The TGI [32] was over 100 µM, the GI50 [33] was over 100 µM and the TGI [33] was over 100 µM. For the same molecule, the GI50 [34] was 22.3 µM, the TGI [34] was over 31.6 µM and the GI50 [35] was over 100 µM. The TGI [35] was over 100 µM, the GI50 [36] was over 28.8 µM and the TGI [36] was over 31.6 µM. It also gave a GI50 [37] of 4.29 µM, a TGI [37] of 7.91 µM and a GI50 [38] of over 26.8 µM. It also gave a TGI [38] of over 100 µM, a GI50 [39] of 5.36 µM and a TGI [39] of 9.56 µM. It also gave a GI50 [40] of 2.08 µM, a TGI [40] of 6.86 µM and a GI50 [41] of over 100 µM. For the same molecule, the TGI [41] was over 100 µM, the GI50 [42] was over 31.6 µM and the TGI [42] was over 31.6 µM. For the same molecule, the GI50 [43] was 24.3 µM, the TGI [43] was over 31.6 µM and the GI50 [44] was 2.44 µM. The TGI [44] was over 45.8 µM, the GI50 [45] was over 100 µM and the TGI [45] was over 100 µM. For the same molecule, the GI50 [46] was 1.85 µM, the TGI [46] was 7.29 µM and the GI50 [47] was 1.64 µM. For the same molecule, the TGI [47] was 3.24 µM, the GI50 [48] was 4.99 µM and the TGI [48] was over 100 µM. The GI50 [49] was over 31.6 µM, the TGI [49] was over 31.6 µM and the GI50 [50] was over 31.6 µM. The TGI [50] was over 31.6 µM, the GI50 [51] was over 31.6 µM and the TGI [51] was over 31.6 µM. It also gave a GI50 [52] of over 31.6 µM, a TGI [52] of over 31.6 µM and a GI50 [53] of 98.7 µM. The TGI [53] was over 100 µM, the GI50 [54] was over 100 µM and the TGI [54] was over 100 µM.
